The text below walks through data of PMC9024523, “Phenoxyaromatic Acid Analogues as Novel Radiotherapy Sensitizers: Design, Synthesis and Biological Evaluation” (Molecules, 2022).

Data set [1] has as its system mouse red blood cells. Kind of data set: In vitro red blood cell-based assay (oxygen equilibrium curve, Softron analyzer). The note with it: final effector concentration 2 mM, mean ± SD; for P50/P50C: P50C = control with 1% DMSO; for P50: 1% DMSO; for P50 / ∆P50: mouse red blood cells; for ∆P50: ∆P50 = P50 − P50C. An excerpt: In the first stage of our research, three series of analogues were designed and synthesized to explore refinement of the hydrophobic parts of 19f, 19m, 24a and 24b; hinge areas of 18g, 19b and 19y; and tail regions of 15c, 15d and 16c, respectively. We used the Softron Analyzer to evaluate the effect of these compounds on the half-blood oxygen saturation(P50) value of red blood cells. The most promising phenoxyaromatic acid compound, efaproxiral, was used as a positive control. […] The results reminded us that the modification of the hydrophobic part or linker extension is beneficial to improve an allosteric effect.
Eight-week-old female C57BL6J mice were purchased from Beijing Vital River Laboratory Animal Technology Co., Ltd. A total of 540 μL mouse blood was added into the 1.5 mL centrifuge tube, followed by adding 60 μL 3.8% sodium citrate. The mixture was then centrifuged at 1500 rpm for 10 min, the supernatant was carefully aspirated, and the cells were washed three times with PBS solution. After mixing packed red blood cells with Alsever’s solution in a ratio of 1:1, a blood gas analyzer (RADIOMETER ABL 90) was used to analyze the red blood cell density and hemoglobin concentration.
All of the compounds were prepared as 200 mM stock solutions in DMSO. Oxygen equilibrium measurements were performed with the Softron analyzer (Softron Medical Products, Beijing, China) using mouse red blood cells. The samples were prepared by adding 3 mg hemoglobin equivalent of red blood cells into 3.92 mL loading buffer (100 mM NaCl, 50 mM bis-Tris at pH 7.2 and 25 °C), followed by 20 μL 10% Dimethicone as a defoamer and 20 μL 20% BSA. Afterwards, 40 μL stock solution was added, and the mixture was loaded to the sample cell and fully deoxygenated by blowing into nitrogen at 37 °C for 15 min. Then, the oxygen equilibrium curve was recorded by blowing into oxygen.

Data set [2] relates to luciferase-labeled U87MG implanted into Balb/c nude mice brains. In words: In vivo radiosensitization on orthotopically transplanted GB. The arrangement: species or system mouse. The note with it: for overall survival time of tumor-bearing mice compared to vehicle control: 150 mg/kg ip combined with IR. On the procedure: In order to evaluate in vivo antitumor effects, luciferase-labeled U87MG was implanted into Balb/c nude mice brains. A small animal bioluminescence imaging system was applied to trace the tumor formation and dynamic changes in GB size. Cobalt 60 was used for fractionated-dose whole-brain irradiation therapy (IR). The tumor was irradiated with a total dose of 12 Gy in four fractions of 3 Gy at a dose rate of 0.3 Gy/min. Efaproxiral or 19c was administrated at a dosage of 150 mg/kg by intraperitoneal injection (ip) every four days over a period of sixteen days. IR was conducted 15 min after ip.
Four-week-old female BALB/c nude mice were purchased from Beijing Vital River Laboratory Animal Technology Co., Ltd. Animals were monitored daily by certified veterinary staff and laboratory personnel. All mice used in this study were maintained in a pathogen-free barrier animal facility. The study was in compliance with all relevant ethical regulations regarding animal research. All animal experiments were approved by the Institutional Animal Care and Use Committee at the Beijing Institute of Basic Medical Sciences. The U87-luc cells were processed and resuspended into basal medium at a concentration of 10^7 cells/mL. Next, 8 × 10^5 U87-luc glioma cells were implanted into the right frontal lobes of each nude mouse. Ten days after tumor implantation, tumor-bearing mice were randomly divided into six groups according to the tumor size and subjected to the indicated treatment (n = 6). Administration of drugs (150mg/kg) or vehicle was performed once every 4 days four consecutive times by intraperitoneal injection. All radiation treatments were performed 25 min after the drug or vehicle was given. Tumors on the brains of mice were irradiated at a dosage of 3 Gy four consecutive times using a ^60Co γ irradiator. The dose rate was 0.3 Gy/min. The bodies of the mice were shielded using lead blocks. The tumor progress was tracked by a small animal live bioluminescence imaging system (LB983NC100U, Germany).

For the next data set, the system named is HEK293 cells. In words: Cell Titer-Glo cytotoxicity assay, HEK293. The note with it: for cytotoxicity (summary statement): HEK293 (normal) cells. The data set is classed as cell-based. On the procedure: (§1) For further in vivo evaluation of newly synthesized compounds, 19c and 19t were selected as candidates. Hemoglobin allosteric effectors require a relatively high blood concentration to be effective. Cytotoxicity evaluation was conducted out of consideration for medication safety. HEK293 and U87MG cells were used to evaluate the cytotoxicity.
(§2) Luciferase-transfected human glioma cells (U87-luc) and HEK293 cells were kindly provided by Dr. Nie and cultured in Dulbecco’s Modified Eagle Medium (CM10013, MacGene) with 10% fetal bovine serum (1966173C, Gibco) and 1% penicillin-streptomycin in a humidified atmosphere of 5% CO2 at 37 °C.
(§3) Cells were plated in a 96-well plate at a density of 2000 cells/well and then treated with 19c or 19t at gradient concentrations of 10^1, 10^2, 10^3, 10^4, 10^5, 10^6and 10^7 nM. Compounds 19c and 19t were prepared as the sodium salt by adding saturated sodium bicarbonate in the process of stock solution preparation. Cell viability was evaluated on the indicated days after treatment with a Cell Titer-Glo Luminescent Cell Viability Assay kit (G7572, Promega, Madison, WI, USA) according to the manufacturer’s instructions. All data were normalized to those on day 0 and presented as the mean ± standard deviation (SD).
On the technique in general: Cellular ATP, detected with luciferase, serves as a proxy for viable cell number.

The next data set relates to U87MG cells. In words: Cell Titer-Glo cytotoxicity assay, U87MG. Type of data set: cell-based, human. The note with it: for cytotoxicity (summary statement): U87MG (glioma) cells. How it is done: as §1, §2, §3
A short description of data set [3]: Pharmacokinetic study in rats. The note with it: rat; for AUC(0-inf) / AUC(0-t) / Cmax / Tmax / half-life / MRT inf: male, Sprague-Dawley, plasma; for MRT inf: read-out: MRTInf_obs; for AUC_%Extrap_obs: (AUCinf−AUClast)/AUCinf. The data set is classed as in vivo. How it is done: Based on the potential radiosensitization effects in vivo, we performed an in vivo pharmacokinetic (PK) study to preliminarily evaluate the druggability of 19c at a dosage of 100 mg/kg by intraperitoneal injection (ip) or oral administration (po).
The pharmacokinetic experiments with 19c in rats were performed by Beijing Pharmaron, Inc. All animals were maintained in the pathogen-free barrier animal facility, and the experiments were approved by the Animal Care and Use Committee of the company. The drug solution was formulated into a 10 mg/mL solution with normal saline on the day of administration. After a single dose of 19c (100 mg/kg) by intraperitoneal injection (ip) or oral administration (po) in male Sprague-Dawley rats (n = 3), blood samples were collected 0.25, 0.5, 1, 2, 4, 6, 8 and 24 h post dose and centrifuged at 4000× g for 5 min at 4 °C to obtain plasma. The plasma was diluted 3 times with water. A measure of 2 µL of diluted supernatant was injected into the LC/MS/MS system for quantitative analysis. […] The Phoenix WinNonlin 8.0 software was applied for the calculation of pharmacokinetic parameters.

Data set [4] has as its system mouse red blood cells. Kind of data set: In vitro red blood cell-based assay (oxygen equilibrium curve, Softron analyzer).

Where “and” joins values, the source holds several entries; their conditions need not be identical. Identical values can stand only once. Entries after “also recorded” stand apart in the source; their conditions may differ. Like-named read-outs stand apart in the source and are kept apart here.

In the case of `Cc1cc(C)cc(NC(=O)Cc2ccc(OC(C)(C)C(=O)O)cc2)c1` [Efaproxiral, 2-(4-(2-((3,5-dimethylphenyl)amino)-2-oxoethyl)phenoxy)-2-methylpropanoic acid, reference compound], in the data set on mouse red blood cells [1], the P50/P50C is on record as 1.79 ± 0.02, the P50 came to 82.50 ± 1.01 mmHg and the “∆P50” value turned out to be 36.40 mmHg. Further, the “∆P50” value in the data set on mouse red blood cells [1] (listed as Efaproxiral ( 19a )) is 36.40 ± 1.01 mmHg. Further, the “overall survival time of tumor-bearing mice compared to vehicle control” value in data set [2] is listed as “could improve the overall survival time”.

The term IC50 denotes the concentration needed to halve the response being measured. Regarding “(E)-2-methyl-2-(4-(3-((3-(methylthio)phenyl)amino)-3-oxoprop-1-en-1- yl)phenoxy) propanoic acid [19t]”, in the data set on mouse red blood cells [1], the P50/P50C is recorded as 2.13 ± 0.07; the P50 came out at 89.62 ± 2.02 mmHg; the “K (Hill coefficient of the oxygen dissociation curve at 50% saturation)” value came to 2.43 ± 0.16; the “∆P50” value was 44.38 mmHg and 44.38 ± 2.02 mmHg. Besides, the “cytotoxicity (summary statement)” value in the data set with HEK293 cells is “cytotoxic toward both cells with no selectivity; also recorded: cytotoxic to both normal and glioma cells at low micromolar levels without selectivity”. Also, in the data set with HEK293 cells (HEK293 cells, concentration of 10 μm), the cytotoxicity entry is “showed cytotoxicity”. Besides, the TC50 with HEK293 cells (HEK293 cells, sodium salt stock) worked out at 165 µM. The “cytotoxicity (summary statement)” value with U87MG cells was “cytotoxic toward both cells with no selectivity; also recorded: cytotoxic to both normal and glioma cells at low micromolar levels without selectivity”. The cytotoxicity entry in the data set on U87MG cells (U87MG cells, concentration of 10 μm) is listed as “showed cytotoxicity”. For the same molecule, the IC50 in the data set with U87MG cells (U87MG cells, sodium salt stock) stood at 183 µM.

By AUC(0-inf) is commonly meant the area under the concentration-time curve extrapolated to infinity. High values mean more exposure, low ones less exposure. In general, AUC(0-t) refers to exposure summed from dosing to a finite time, without extrapolation to infinity. Low readings indicate low exposure, high ones high exposure. What is called Cmax is the maximum level reached in the sampled fluid or tissue. Usually Tmax stands for the time from dosing to the highest level. Usually half-life stands for the time in which the quantity being followed falls by half. A higher half-life goes with slow decline. With `Cc1cc(C)cc(NC(=O)CCc2ccc(OC(C)(C)C(=O)O)cc2)c1` [19c, 2-(4-(3-((3,5-dimethylphenyl)amino)-3-oxopropyl)phenoxy)-2-methylpropanoic acid], in the data set on mouse red blood cells [1], the P50/P50C came to 2.04 ± 0.04; the P50 turned out to be 89.16 ± 5.20 mmHg; the “∆P50” value is 45.50 mmHg and 45.50 ± 1.73 mmHg. Moreover, the “cytotoxicity (summary statement)” value with HEK293 cells is given as “no cytotoxicity”. Further, in the data set with HEK293 cells (HEK293 cells, concentration of 5 mM), the cytotoxicity result was “no cytotoxic effect”. The “cytotoxicity (summary statement)” value in the data set on U87MG cells was “no cytotoxicity”. Further, the cytotoxicity entry in the data set on U87MG cells (U87MG cells, concentration of 5 mM) was “no cytotoxic effect”. For the same molecule, the “overall survival time of tumor-bearing mice compared to vehicle control” value in data set [2] is recorded as “could improve the overall survival time”. Further, the “radiosensitization effect in vivo (summary statement)” value in data set [2] (orthotopically transplanted GB in mouse brains) is on record as “exhibited a radiosensitization effect; also recorded: effective GB radiosensitizer”. In data set [3] (ip 100 mg/kg), this molecule registered an AUC(0-inf) of 612 µg·h/mL, an AUC_%Extrap_obs of 0.0362% and an AUClast/D of 6122. In data set [3] (ip 100 mg/kg, saline), the AUC(0-t) was determined as 612 µg·h/mL, the peak level (Cmax) was 202 µg/mL, the Tmax was 0.25 h and the half-life was 2.55 h. In data set [3] (ip 100 mg/kg, saline), the MRT inf turned out to be 2.32 h and the AUCinf is given as 612,428 h*ng/mL. Further, in data set [3] (po 100 mg/kg, saline), the AUC(0-inf) came out at 411 µg·h/mL, the AUC(0-t) stood at 410 µg·h/mL, the concentration peaked (Cmax) at 111 µg/mL and the Tmax worked out at 2 h. In addition, in data set [3] (po 100 mg/kg, saline), the half-life is 2.78 h and the MRT inf turned out to be 2.58 h. The oral availability entry in data set [3] was “orally available”. In data set [3] (po 100 mg/kg), the AUC_%Extrap_obs is 0.0522% and the AUClast/D turned out to be 4104. The “clinical symptoms during the PK experiment” value in data set [3] (single dose 100 mg/kg ip or po) is “No abnormal clinical symptoms”. The “influence on the Bohr effect of red blood cells” value in the data set on mouse red blood cells [4] (2 mM, change in acidity, OEC shift) is recorded as “will not offset the Bohr effect; also recorded: preserved the Bohr effect”. Also, the “dose–response relationship of oxygen affinity of hemoglobin” value in the data set with mouse red blood cells [4] (different concentrations, oxygen dissociation curve) is “dose-dependently altered the oxygen affinity of hemoglobin; also recorded: exerts an allosteric effect on hemoglobin at a micromolar level”.
